Tests used:
Format in all cases: in vivo
[1] = system: Blumeria graminis f. sp. tritici; experiment: Test C: wheat powdery mildew, preventive spray on wheat seedlings; settings: 100 = 100% disease control, 0 = no control; for pest or weed control at 50 ppm: Blumeria graminis, read-out: Test C disease control rating
From the text: (§1) General protocol for preparing test suspensions for Tests A-F: the test compounds were first dissolved in acetone in an amount equal to 3% of the final volume and then suspended at the desired concentration (in ppm) in acetone and purified water (50/50 mix by volume) containing 250 ppm of the surfactant PEG400 (polyhydric alcohol esters). The resulting test suspensions were then used in Tests A-F.
The test suspension was sprayed to the point of run-off on wheat seedlings. The following day the seedlings were inoculated with a spore dust of Blumeria graminis f. sp. tritici, (also known as Eysiphe graminis f. sp. tritici, the causal agent of wheat powdery mildew) and incubated in a growth chamber at 20° C. for 8 days, after which time visual disease ratings were made.
(§2) A rating of 100 indicates 100% disease control and a rating of 0 indicates no disease control (relative to the controls). A dash (-) indicates the compound was not tested.

[2] = system: Puccinia recondita f. sp. tritici; experiment: Test B: wheat leaf rust, preventive spray on wheat seedlings; settings: 100 = 100% disease control, 0 = no control; for pest or weed control at 50 ppm: Puccinia recondita, read-out: Test B disease control rating
From the text: as §1
(§3) The test solution was sprayed to the point of run-off on wheat seedlings. The following day the seedlings were inoculated with a spore suspension of Puccinia recondita f. sp. tritici (the causal agent of wheat leaf rust) and incubated in a saturated atmosphere at 20° C. for 24 h, and then moved to a growth chamber at 20° C. for 7 days, after which time visual disease ratings were made.
as §2

Alternaria solani = experiment: Test F: tomato early blight, preventive spray on tomato seedlings; settings: 100 = 100% disease control, 0 = no control; for pest or weed control at 50 ppm: Alternaria solani, read-out: Test F disease control rating
From the text: as §1
(§4) The test suspension was sprayed to the point of run-off on tomato seedlings. The following day the seedlings were inoculated with a spore suspension of Alternaria solani (the causal agent of tomato early blight) and incubated in a saturated atmosphere at 27° C. for 48 h, and then moved to a growth chamber at 20° C. for 3 days, after which time visual disease ratings were made.
as §2

Botrytis cinerea = experiment: Test E: tomato Botrytis, preventive spray on tomato seedlings; settings: 100 = 100% disease control, 0 = no control; for pest or weed control at 50 ppm: Botrytis cinerea, read-out: Test E disease control rating
From the text: as §1
as §4, with “Botrytis cinerea” for “Alternaria solani”, “Botrytis)” for “early blight)”, “20°” for “27°”, “24°” for “20°”
as §2

Zymoseptoria tritici = experiment: Test A: wheat leaf blotch, preventive spray on wheat seedlings; settings: 100 = 100% disease control, 0 = no control; for pest or weed control at 50 ppm: Zymoseptoria tritici, read-out: Test A disease control rating
From the text: as §1
The test solution was sprayed to the point of run-off on wheat seedlings. The following day the seedlings were inoculated with a spore suspension of Zymoseptoria tritici (the causal agent of wheat leaf blotch) and incubated in a saturated atmosphere at 24° C. for 48 h, and then moved to a growth chamber at 20° C. for 17 days, after which time disease ratings were made.
as §2

Phakopsora pachyrhizi = experiment: Test D: Asian soybean rust, preventive spray on soybean seedlings; settings: 100 = 100% disease control, 0 = no control; for pest or weed control at 50 ppm: Phakopsora pachyrhizi, 216 h, read-out: Test D disease control rating
From the text: as §1
as §3, with “soybean” for “wheat”, “Phakopsora pachyrhizi” for “Puccinia recondita f. sp. tritici”, “Asian soybean” for “wheat leaf”, “22°” for “20°”, “h” for “h,”, “8” for “7”
as §2

Cn1cc(-c2cc(F)ccc2F)c(-c2ccc(F)cc2Cl)c(Cl)c1=O [Compound 24]
Test C disease control rating ([1]; 50 ppm): 0% | Test B disease control rating ([2]; 50 ppm): 96% | Test F disease control rating (Alternaria solani; 50 ppm): 0% | Test E disease control rating (Botrytis cinerea; 50 ppm): 85% | Test A disease control rating (Zymoseptoria tritici; 50 ppm): 96% | Test D disease control rating (Phakopsora pachyrhizi; 50 ppm): 0%

COc1cc(OC)cc(-c2cn(C)c(=O)c(Cl)c2-c2ccc(F)cc2F)c1 [Compound 25]
Test C disease control rating ([1]; 50 ppm): 0% | Test B disease control rating ([2]; 50 ppm): 100% | Test F disease control rating (Alternaria solani; 50 ppm): 99% | Test E disease control rating (Botrytis cinerea; 50 ppm): 82% | Test A disease control rating (Zymoseptoria tritici; 50 ppm): 100% | Test D disease control rating (Phakopsora pachyrhizi; 50 ppm): 84%

Cn1cc(-c2cc(F)c(F)cc2F)c(-c2ccc(F)cc2Cl)c(Cl)c1=O [Compound 26]
Test C disease control rating ([1]; 50 ppm): 0% | Test B disease control rating ([2]; 50 ppm): 86% | Test F disease control rating (Alternaria solani; 50 ppm): 0% | Test E disease control rating (Botrytis cinerea; 50 ppm): 83% | Test A disease control rating (Zymoseptoria tritici; 50 ppm): 99% | Test D disease control rating (Phakopsora pachyrhizi; 50 ppm): 0%

Cn1cc(-c2ccccc2C(F)(F)F)c(-c2ccc(F)cc2Cl)c(Cl)c1=O [Compound 27]
Test C disease control rating ([1]; 50 ppm): 0% | Test B disease control rating ([2]; 50 ppm): 100% | Test F disease control rating (Alternaria solani; 50 ppm): 0% | Test E disease control rating (Botrytis cinerea; 50 ppm): 58% | Test A disease control rating (Zymoseptoria tritici; 50 ppm): 98% | Test D disease control rating (Phakopsora pachyrhizi; 50 ppm): 25%

COc1ccc(F)c(-c2cn(C)c(=O)c(Cl)c2-c2ccc(F)cc2Cl)c1 [Compound 28]
Test C disease control rating ([1]; 50 ppm): 97% | Test B disease control rating ([2]; 50 ppm): 100% | Test F disease control rating (Alternaria solani; 50 ppm): 99% | Test E disease control rating (Botrytis cinerea; 50 ppm): 98% | Test A disease control rating (Zymoseptoria tritici; 50 ppm): 100% | Test D disease control rating (Phakopsora pachyrhizi; 50 ppm): 87%

COc1ccc(Cl)c(-c2cn(C)c(=O)cc2-c2ccc(F)cc2Cl)c1 [Compound 31]
Test C disease control rating ([1]; 50 ppm): 0% | Test B disease control rating ([2]; 50 ppm): 96% | Test F disease control rating (Alternaria solani; 50 ppm): 0% | Test E disease control rating (Botrytis cinerea; 50 ppm): 99% | Test A disease control rating (Zymoseptoria tritici; 50 ppm): 96% | Test D disease control rating (Phakopsora pachyrhizi; 50 ppm): 0%

COc1ccc(Cl)c(-c2cn(C)c(=O)c(Cl)c2-c2ccc(F)cc2Cl)c1 [Compound 32, 3-chloro-4-(2-chloro-4-fluorophenyl)-5-(2-chloro-5-methoxyphenyl)-1-methyl-2(1H)-pyridinone]
pest or weed control at 50 ppm ([1]; 50 ppm): 99% | pest or weed control at 50 ppm ([2]; 50 ppm): 100% | pest or weed control at 50 ppm (Alternaria solani; 50 ppm): 100% | pest or weed control at 50 ppm (Botrytis cinerea; 50 ppm): 100% | pest or weed control at 50 ppm (Zymoseptoria tritici; 50 ppm): 100% | pest or weed control at 50 ppm (Phakopsora pachyrhizi; 50 ppm): 99%

COc1ccc(Cl)c(-c2cn(C)c(=O)c(Br)c2-c2ccc(F)cc2Cl)c1 [Compound 33, 3-bromo-4-(2-chloro-4-fluorophenyl)-5-(2-chloro-5-methoxyphenyl)-1-methyl-2(1H)-pyridinone]
pest or weed control at 50 ppm ([1]; 50 ppm): 99% | pest or weed control at 50 ppm ([2]; 50 ppm): 100% | pest or weed control at 50 ppm (Alternaria solani; 50 ppm): 100% | pest or weed control at 50 ppm (Botrytis cinerea; 50 ppm): 100% | pest or weed control at 50 ppm (Zymoseptoria tritici; 50 ppm): 100% | pest or weed control at 50 ppm (Phakopsora pachyrhizi; 50 ppm): 89%

Cn1cc(-c2cc(F)ccc2Cl)c(-c2ccc(F)cc2Cl)cc1=O [Compound 34]
Test C disease control rating ([1]; 50 ppm): 48% | Test B disease control rating ([2]; 50 ppm): 68% | Test F disease control rating (Alternaria solani; 50 ppm): 0% | Test E disease control rating (Botrytis cinerea; 50 ppm): 98% | Test A disease control rating (Zymoseptoria tritici; 50 ppm): 100% | Test D disease control rating (Phakopsora pachyrhizi; 50 ppm): 59%

COc1cc(OC)c(Cl)c(-c2cn(OCC#N)c(=O)c(Cl)c2-c2ccc(F)cc2Cl)c1 [Compound 35]
Test C disease control rating ([1]; 50 ppm): 73% | Test B disease control rating ([2]; 50 ppm): 100% | Test F disease control rating (Alternaria solani; 50 ppm): 0% | Test E disease control rating (Botrytis cinerea; 50 ppm): 94% | Test A disease control rating (Zymoseptoria tritici; 50 ppm): 84% | Test D disease control rating (Phakopsora pachyrhizi; 50 ppm): 92%

C#CCOn1cc(-c2cc(OC)cc(OC)c2Cl)c(-c2ccc(F)cc2Cl)c(Cl)c1=O [Compound 36, 3-chloro-5-(2-chloro-3,5-dimethoxyphenyl)-4-(2-chloro-4-fluorophenyl)-1-(2-propynyloxy)-2(1H)-pyridinone]
pest or weed control at 50 ppm ([1]; 50 ppm): 0% | pest or weed control at 50 ppm ([2]; 50 ppm): 99% | pest or weed control at 50 ppm (Alternaria solani; 50 ppm): 0% | pest or weed control at 50 ppm (Botrytis cinerea; 50 ppm): 96% | pest or weed control at 50 ppm (Zymoseptoria tritici; 50 ppm): 98% | pest or weed control at 50 ppm (Phakopsora pachyrhizi; 50 ppm): 96%

COc1cc(OC)c(Cl)c(-c2cn(OCC(F)F)c(=O)c(Cl)c2-c2ccc(F)cc2Cl)c1 [Compound 37]
Test C disease control rating ([1]; 50 ppm): 0% | Test B disease control rating ([2]; 50 ppm): 99% | Test F disease control rating (Alternaria solani; 50 ppm): 0% | Test E disease control rating (Botrytis cinerea; 50 ppm): 88% | Test A disease control rating (Zymoseptoria tritici; 50 ppm): 68% | Test D disease control rating (Phakopsora pachyrhizi; 50 ppm): 87%

COc1cc(OC)c(Cl)c(-c2cn(OC(F)F)c(=O)c(Cl)c2-c2ccc(F)cc2Cl)c1 [Compound 38, 3-chloro-5-(2-chloro-3,5-dimethoxyphenyl)-4-(2-chloro-4-fluorophenyl)-1-(difluoromethoxy)-2(1H)-pyridinone]
pest or weed control at 50 ppm ([1]; 50 ppm): 73% | pest or weed control at 50 ppm ([2]; 50 ppm): 100% | pest or weed control at 50 ppm (Alternaria solani; 50 ppm): 0% | pest or weed control at 50 ppm (Botrytis cinerea; 50 ppm): 96% | pest or weed control at 50 ppm (Zymoseptoria tritici; 50 ppm): 96% | pest or weed control at 50 ppm (Phakopsora pachyrhizi; 50 ppm): 75%

COc1cc(OC)c(Cl)c(-c2cn(O)c(=O)c(Cl)c2-c2ccc(F)cc2Cl)c1 [Compound 39, 3-chloro-5-(2-chloro-3,5-dimethoxyphenyl)-4-(2-chloro-4-fluorophenyl)-1-hydroxy-2(1H)-pyridinone]
pest or weed control at 50 ppm ([1]; 50 ppm): 0% | pest or weed control at 50 ppm ([2]; 50 ppm): 86% | pest or weed control at 50 ppm (Alternaria solani; 50 ppm): 0% | pest or weed control at 50 ppm (Botrytis cinerea; 50 ppm): 56% | pest or weed control at 50 ppm (Zymoseptoria tritici; 50 ppm): 69% | pest or weed control at 50 ppm (Phakopsora pachyrhizi; 50 ppm): 77%

Cn1cc(-c2cc(F)ccc2Cl)c(-c2ccc(F)cc2F)c(Cl)c1=O [Compound 40]
Test C disease control rating ([1]; 50 ppm): 98% | Test B disease control rating ([2]; 50 ppm): 100% | Test F disease control rating (Alternaria solani; 50 ppm): 99% | Test E disease control rating (Botrytis cinerea; 50 ppm): 94% | Test A disease control rating (Zymoseptoria tritici; 50 ppm): 100% | Test D disease control rating (Phakopsora pachyrhizi; 50 ppm): 92%

Cn1cc(-c2ccc(F)cc2F)c(-c2ccc(F)cc2F)c(Cl)c1=O [Compound 41]
Test C disease control rating ([1]; 50 ppm): 96% | Test B disease control rating ([2]; 50 ppm): 96% | Test F disease control rating (Alternaria solani; 50 ppm): 91% | Test E disease control rating (Botrytis cinerea; 50 ppm): 91% | Test A disease control rating (Zymoseptoria tritici; 50 ppm): 100% | Test D disease control rating (Phakopsora pachyrhizi; 50 ppm): 69%

Cn1cc(-c2ccc(F)cc2Cl)c(-c2ccc(F)cc2F)c(Cl)c1=O [Compound 42]
Test C disease control rating ([1]; 50 ppm): 93% | Test B disease control rating ([2]; 50 ppm): 99% | Test F disease control rating (Alternaria solani; 50 ppm): 93% | Test E disease control rating (Botrytis cinerea; 50 ppm): 94% | Test A disease control rating (Zymoseptoria tritici; 50 ppm): 100% | Test D disease control rating (Phakopsora pachyrhizi; 50 ppm): 73%

COc1ccc(Cl)c(-c2cn(C)c(=O)c(C)c2-c2ccc(F)cc2Cl)c1 [Compound 43, 4-(2-chloro-4-fluorophenyl)-5-(2-chloro-5-methoxyphenyl)-1,3-dimethyl-2(1H)-pyridinone]
pest or weed control at 50 ppm ([1]; 50 ppm): 100% | pest or weed control at 50 ppm ([2]; 50 ppm): 100% | pest or weed control at 50 ppm (Alternaria solani; 50 ppm): 100% | pest or weed control at 50 ppm (Botrytis cinerea; 50 ppm): 98% | pest or weed control at 50 ppm (Zymoseptoria tritici; 50 ppm): 100% | pest or weed control at 50 ppm (Phakopsora pachyrhizi; 50 ppm): 97%

Cn1c(Cl)c(-c2ccc(F)cc2Cl)c(-c2c(F)cccc2F)c(Cl)c1=O [Compound 44]
Test C disease control rating ([1]; 50 ppm): 79% | Test B disease control rating ([2]; 50 ppm): 93% | Test F disease control rating (Alternaria solani; 50 ppm): 0% | Test E disease control rating (Botrytis cinerea; 50 ppm): 40% | Test A disease control rating (Zymoseptoria tritici; 50 ppm): 98% | Test D disease control rating (Phakopsora pachyrhizi; 50 ppm): 96%

CCOn1cc(-c2cc(OC)cc(OC)c2)c(-c2ccc(F)cc2Cl)c(Cl)c1=O [Compound 45]
Test C disease control rating ([1]; 250 ppm): 72% | Test B disease control rating ([2]; 250 ppm): 91% | Test F disease control rating (Alternaria solani; 250 ppm): 0% | Test E disease control rating (Botrytis cinerea; 250 ppm): 97% | Test A disease control rating (Zymoseptoria tritici; 250 ppm): 100% | Test D disease control rating (Phakopsora pachyrhizi; 250 ppm): 0%

CCOn1cc(-c2cc(OC)cc(OC)c2Cl)c(-c2ccc(F)cc2Cl)c(Cl)c1=O [Compound 46]
Test C disease control rating ([1]; 250 ppm): 92% | Test B disease control rating ([2]; 250 ppm): 100% | Test F disease control rating (Alternaria solani; 250 ppm): 47% | Test E disease control rating (Botrytis cinerea; 250 ppm): 88% | Test A disease control rating (Zymoseptoria tritici; 250 ppm): 99% | Test D disease control rating (Phakopsora pachyrhizi; 250 ppm): 99%

Source: patent US20240215577A1, “FUNGICIDAL PYRIDONES” (FMC Corporation, priority 2021, published 2024)
